This is an account of results in patent US6630494B2, “Phenyl-substituted 1,4-dihydropyridines” (Bayer Aktiengesellschaft, priority 1983, dated 2003).

For data set [1], the system named is DHP (PN-200 110) binding sites in rats' brain. Description: Binding affinity to DHP (PN 200-110) binding sites in rats' brain. More on the design: species or system rat. To be noted: comparison of binding affinities rats' brain vs rats' heart (Ki heart / Ki brain). The method, then: (§1) The binding affinities to PN 200-110 binding sites in rats' brains or rats' hearts are determined according to Rampe, D. R., Rutledge, A., Janis, R. A., Triggle, D. J.: Can. Journ. Physiol. Pharmacol. 65, (1987) 1452.
(§2) This selectivity exceeds that of the known cerebrally active Ca^2+-antagonistic dihydropyridines nimodipine and nicardipine. This is seen e.g. in the comparison of the binding affinities to DHP (PN-200 110) binding sites in rats' brain and rats' heart [cf. Rampe, D. R., Rutledge, A., Janis, R. A., Triggle, D. J., Can. Journ. Physiol. Pharmacol. 65 (1987), 1452].

The target in data set [2] is T1, DHP (PN-200 110) binding sites in rats' heart (Rattus norvegicus, UniProt P22002).
T1 construct: from tissue; host or cells: rat heart
T1 sequence (P22002 whole entry, other chains not shown): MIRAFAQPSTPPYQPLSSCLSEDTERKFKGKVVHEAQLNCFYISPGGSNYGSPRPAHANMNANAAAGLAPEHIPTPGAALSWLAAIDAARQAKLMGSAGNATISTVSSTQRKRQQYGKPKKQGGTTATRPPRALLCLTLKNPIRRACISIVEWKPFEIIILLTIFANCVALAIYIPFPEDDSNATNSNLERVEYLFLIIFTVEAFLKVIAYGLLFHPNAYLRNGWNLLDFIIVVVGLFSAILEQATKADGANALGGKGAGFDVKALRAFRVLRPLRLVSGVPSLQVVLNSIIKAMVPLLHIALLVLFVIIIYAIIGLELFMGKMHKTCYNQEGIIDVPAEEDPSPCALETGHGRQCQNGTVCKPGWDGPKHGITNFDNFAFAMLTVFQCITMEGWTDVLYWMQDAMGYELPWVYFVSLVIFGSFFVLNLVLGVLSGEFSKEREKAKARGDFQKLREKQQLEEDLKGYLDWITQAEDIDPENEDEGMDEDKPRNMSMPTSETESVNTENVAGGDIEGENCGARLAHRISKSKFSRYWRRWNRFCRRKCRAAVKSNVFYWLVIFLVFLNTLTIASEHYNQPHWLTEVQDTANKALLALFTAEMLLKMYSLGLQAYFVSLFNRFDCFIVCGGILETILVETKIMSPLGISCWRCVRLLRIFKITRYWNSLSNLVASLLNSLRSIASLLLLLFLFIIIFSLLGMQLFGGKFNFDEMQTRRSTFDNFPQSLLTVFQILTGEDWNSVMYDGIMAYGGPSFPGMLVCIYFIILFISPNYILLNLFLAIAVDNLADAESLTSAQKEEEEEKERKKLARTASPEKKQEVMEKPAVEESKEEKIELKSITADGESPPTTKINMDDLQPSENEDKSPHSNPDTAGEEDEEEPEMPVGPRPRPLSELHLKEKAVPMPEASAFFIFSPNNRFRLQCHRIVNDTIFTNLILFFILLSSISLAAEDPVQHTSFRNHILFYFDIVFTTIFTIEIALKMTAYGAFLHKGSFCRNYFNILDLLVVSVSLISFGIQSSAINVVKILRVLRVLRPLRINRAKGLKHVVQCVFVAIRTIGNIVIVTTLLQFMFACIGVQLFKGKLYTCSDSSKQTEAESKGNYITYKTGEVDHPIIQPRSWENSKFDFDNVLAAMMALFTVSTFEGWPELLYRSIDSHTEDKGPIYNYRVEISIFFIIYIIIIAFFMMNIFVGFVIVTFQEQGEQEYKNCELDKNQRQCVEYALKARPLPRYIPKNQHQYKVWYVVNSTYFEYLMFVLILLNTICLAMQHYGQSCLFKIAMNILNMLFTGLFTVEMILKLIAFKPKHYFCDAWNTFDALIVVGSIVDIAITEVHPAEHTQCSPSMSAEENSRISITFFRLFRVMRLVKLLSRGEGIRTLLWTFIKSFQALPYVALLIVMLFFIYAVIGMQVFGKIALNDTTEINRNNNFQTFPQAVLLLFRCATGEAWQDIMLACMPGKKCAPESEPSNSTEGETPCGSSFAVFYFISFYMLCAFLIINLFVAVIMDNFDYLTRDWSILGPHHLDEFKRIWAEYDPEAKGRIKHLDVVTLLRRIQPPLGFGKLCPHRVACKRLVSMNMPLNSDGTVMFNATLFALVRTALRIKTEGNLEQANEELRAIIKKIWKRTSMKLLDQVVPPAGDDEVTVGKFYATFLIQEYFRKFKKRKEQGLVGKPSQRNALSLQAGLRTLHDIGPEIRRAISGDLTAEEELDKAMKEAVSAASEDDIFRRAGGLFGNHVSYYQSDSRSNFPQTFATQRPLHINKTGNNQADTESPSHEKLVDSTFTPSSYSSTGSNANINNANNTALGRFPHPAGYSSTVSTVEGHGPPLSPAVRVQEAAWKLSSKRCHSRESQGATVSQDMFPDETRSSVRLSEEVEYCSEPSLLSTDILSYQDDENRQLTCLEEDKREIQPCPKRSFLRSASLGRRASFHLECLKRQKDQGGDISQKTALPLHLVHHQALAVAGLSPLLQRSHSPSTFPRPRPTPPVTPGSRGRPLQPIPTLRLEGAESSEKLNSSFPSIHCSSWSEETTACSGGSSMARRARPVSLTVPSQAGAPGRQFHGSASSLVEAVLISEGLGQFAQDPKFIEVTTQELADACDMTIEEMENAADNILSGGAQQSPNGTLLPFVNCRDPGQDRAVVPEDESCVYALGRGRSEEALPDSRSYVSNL
T1 sequence (P54290 25-944 partner limits assumed, other chains not shown): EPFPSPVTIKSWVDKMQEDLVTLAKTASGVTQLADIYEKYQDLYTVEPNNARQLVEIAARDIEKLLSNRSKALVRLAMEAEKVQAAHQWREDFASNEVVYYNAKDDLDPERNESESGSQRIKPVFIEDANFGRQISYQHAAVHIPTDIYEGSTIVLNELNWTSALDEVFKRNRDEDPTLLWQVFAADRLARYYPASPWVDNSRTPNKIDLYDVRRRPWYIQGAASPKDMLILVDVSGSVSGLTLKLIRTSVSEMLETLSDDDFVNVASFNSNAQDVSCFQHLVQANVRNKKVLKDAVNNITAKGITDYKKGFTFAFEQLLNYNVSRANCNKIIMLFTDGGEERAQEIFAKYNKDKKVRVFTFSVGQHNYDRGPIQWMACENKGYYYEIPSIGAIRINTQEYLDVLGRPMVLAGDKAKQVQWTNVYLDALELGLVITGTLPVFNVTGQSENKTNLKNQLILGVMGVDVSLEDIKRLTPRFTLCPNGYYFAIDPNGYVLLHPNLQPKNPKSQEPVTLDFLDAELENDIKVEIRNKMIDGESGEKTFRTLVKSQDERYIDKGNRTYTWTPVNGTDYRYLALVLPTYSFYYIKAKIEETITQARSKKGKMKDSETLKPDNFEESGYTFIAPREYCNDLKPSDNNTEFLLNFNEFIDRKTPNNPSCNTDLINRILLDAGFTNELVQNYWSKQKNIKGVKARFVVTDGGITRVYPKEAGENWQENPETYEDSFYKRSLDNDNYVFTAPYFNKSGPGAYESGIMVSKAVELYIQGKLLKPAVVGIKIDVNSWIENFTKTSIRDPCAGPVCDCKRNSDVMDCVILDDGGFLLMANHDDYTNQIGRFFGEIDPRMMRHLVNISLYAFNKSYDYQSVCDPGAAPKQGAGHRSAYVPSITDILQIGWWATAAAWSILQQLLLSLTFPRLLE
T1 sequence (P54290 945-1091 partner limits assumed, other chains not shown): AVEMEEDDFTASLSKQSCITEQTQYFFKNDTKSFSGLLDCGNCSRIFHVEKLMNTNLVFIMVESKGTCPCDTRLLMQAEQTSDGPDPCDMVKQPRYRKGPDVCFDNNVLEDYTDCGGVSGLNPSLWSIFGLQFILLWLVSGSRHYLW
The experiment in a line: Binding affinity to DHP (PN 200-110) binding sites in rats' heart. The settings on record: PN 200-110 (DHP) binding sites. The procedure:
as §1, §2

`COCCOC(=O)C1=C(C)NC(C)=C(C(=O)OC(C)C)C1c1ccc(F)c(F)c1` (racemic) [Example 18] had a melting point of 78 °C. This compound came in with a Selectivity in data set [1] of 3.4. In addition, in data set [2], the Ki was 28 nM.
`COCCOC(=O)C1=C(C)NC(C)=C(C(=O)OC(C)C)C1c1c(F)cccc1F` (racemic) [Example 6, (±) isopropyl 2-methoxyethyl 4-(2,6-difluorophenyl)-1,4-dihydro-2,6-dimethylpyridine-3,5-dicarboxylate] yielded a melting point of 119 to 120 °C.
As to `COCCOC(=O)C1=C(C)NC(C)=C(C(=O)OC(C)(C)C)C1c1cccc(C#N)c1` (racemic) [Example 33, (±) tert-butyl 2-methoxyethyl 4-(3-cyanophenyl)-1,4-dihydro-2,6-dimethylpyridine-3,5-dicarboxylate], the melting point is 108 to 109 °C. Besides, in data set [1], the Selectivity is recorded as 2.2. Moreover, the Ki in data set [2] came to 7.9 nM.
For `COCCOC(=O)C1=C(C)NC(C)=C(C(=O)OC2CCCC2)C1c1cccc(Cl)c1C#N` (racemic) [Example 46, (±) cyclopentyl 2-methoxyethyl 4-(2-cyano-3-chlorophenyl)-1,4-dihydro-2,6-dimethylpyridine-3,5-dicarboxylate], the melting point lay in the range of 128 to 130 °C.
The compound `COCCOC(=O)C1=C(C)NC(C)=C(C(=O)OC(C)C)C1c1cccc(Cl)c1C#N` (racemic) [Example 15, (±) isopropyl 2-methoxyethyl 4-(3-chloro-2-cyanophenyl)-1,4-dihydro-2,6-dimethylpyridine-3,5-dicarboxylate] displayed a Selectivity in data set [1] of 5.7. Besides, the Ki in data set [2] stood at 11.3 nM.
Regarding `COCCOC(=O)C1=C(C)NC(C)=C(C(=O)OC2CCCC2)C1c1cccc(C(F)(F)F)c1F` (racemic) [Example 36, (±) cyclopentyl 2-methoxyethyl 4-(2-fluoro-3-trifluoromethylphenyl)-1,4-dihydro-2,6-dimethylpyridine-3,5-dicarboxylate], the melting point was determined as 105 °C.
`COCCOC(=O)C1=C(C)NC(C)=C(C(=O)OC2CCCC2)C1c1cccc(C#N)c1Cl` (racemic) [Example 30, (±) cyclopentyl 2-methoxyethyl 4-(2-chloro-3-cyanophenyl)-1,4-dihydro-2,6-dimethylpyridine-3,5-dicarboxylate] yielded a melting point of 119 to 120 °C. Besides, the Selectivity in data set [1] was 4.7. The compound further returned a Ki in data set [2] of 8 nM.
In turn, `COC(=O)C1=C(C)NC(C)=C(C(=O)OCCN(C)Cc2ccccc2)C1c1cccc([N+](=O)[O-])c1` (centres unmarked) [Nicardipine, nicardipine, reference compound] registered a Ki in data set [2] of 14 nM.
Take `COCCOC(=O)C1=C(C)NC(C)=C(C(=O)OC(C)C)C1c1cc(Cl)ccc1Cl` (racemic) [Example 12, (±) isopropyl 2-methoxyethyl 4-(2,5-dichlorophenyl)-1,4-dihydro-2,6-dimethylpyridine-3,5-dicarboxylate]: the melting point is 79 to 89 °C. This compound also gave a Selectivity in data set [1] of 10. In data set [2], the affinity, expressed as Ki, was 72 nM.
Take `COCCOC(=O)C1=C(C)NC(C)=C(C(=O)OC(C)C)C1c1cccc([N+](=O)[O-])c1` (centres unmarked) [Nimodipine, nimodipine, reference compound]: in data set [2], the inhibition constant (Ki) amounted to 4.6 nM.
`COCCOC(=O)C1=C(C)NC(C)=C(C(=O)OC)C1c1cccc(C(F)(F)F)c1F` (racemic) [Example 39, (±) 2-methoxyethyl methyl 4-(2-fluoro-3-trifluoromethylphenyl)-1,4-dihydro-2,6-dimethylpyridine-3,5-dicarboxylate] came in with a melting point of 128 °C.
Regarding `COCCOC(=O)C1=C(C)NC(C)=C(C(=O)OC(C)C)C1c1cccc(C(F)(F)F)c1F` (racemic) [Example 27, (±) isopropyl 2-methoxyethyl 4-(2-fluoro-3-trifluoromethylphenyl)-1,4-dihydro-2,6-dimethylpyridine-3,5-dicarboxylate], the melting point lay within 140 to 142 °C.
The compound `COCCOC(=O)C1=C(C)NC(C)=C(C(=O)OC(C)C)C1c1cccc(F)c1F` (racemic) [Example 9, (±) isopropyl 2-methoxyethyl 4-(2,3-difluorophenyl)-1,4-dihydro-2,6-dimethylpyridine-3,5-dicarboxylate] came in with a melting point of 135 to 136 °C.
The same measure, in the same setting: to `COCCOC(=O)C1=C(C)NC(C)=C(C(=O)OC(C)C)C1c1c(F)cccc1Cl` (racemic) [Example 3, (±) isopropyl 2-methoxyethyl 4-(2-chloro-6-fluorophenyl)-1,4-dihydro-2,6-dimethylpyridine-3,5-dicarboxylate] belongs 57 to 59 °C.
